In patent US20260248127A1, “IMPROVED PESTICIDAL COMPOSITIONS AND PEST CONTROL METHODS” (priority 2022, published 2026):
Converted amounts (≈) assume the structure as drawn. “And” between values parts separate entries of the source, which are not always exact repeats. Equal entries are not always repeated. Where two headings read alike, the source gives them in different places.

What was measured:
[1] = system: Musca domestica CAR21 (insecticide susceptible) strain; experiment: Topical synergist 24-hour mortality assay, CAR21 house flies; assay type: in vivo; settings: for % Dead / Alive / Dead: CAR21, topical doses; for % Dead: 24-hour mortality; for maximum sublethal dose: for both strains (CAR21, KS17); for Alive / Dead: number of flies, pooled of 4 replicates, 24-hour
[2] = system: Musca domestica KS17 (insecticide resistant) strain; experiment: Topical synergist 24-hour mortality assay, KS17 house flies; assay type: in vivo; settings: topical doses; for % Dead: 24-hour mortality; for Alive / Dead: number of flies, pooled of 4 replicates, 24-hour
[3] = system: Aedes aegypti PRS (SP-resistant) strain L3 larvae; settings: data from a previous study, cited from earlier work
[4] = system: Aedes aegypti LVP (SP-susceptible) strain L3 larvae; settings: data from a previous study, cited from earlier work
[5] = system: Aedes aegypti PRS (SP-resistant) strain L3 larvae; experiment: Qcide combinations larval dose-mortality assay, PRS strain; assay type: in vivo
Experimental: (§1) Results represent n=3 biological replicates. […] The Synergistic Ratio (SR) and P-value are shown. Mosquito mortality is shown for A and B: LVP at 24 and 48 hours. […] Mosquito mortality is shown for A and B: PRS at 24 and 48 hours.
(§2) Results represent n=3 biological replicates. […] The Synergistic Ratio (SR) and P-value are shown.

[6] = system: Aedes aegypti LVP (SP-susceptible) strain L3 larvae; experiment: Larval dose-mortality (dose response) assay, LVP strain; assay type: in vivo; settings: for LC50: Aedes aegypti, read-out: Lethal Concentration (LC50)
Description: (§3) Results represent n=3 biological replicates.

[7] = system: Aedes aegypti LVP (SP-susceptible) strain 3-5 day old adults; experiment: Adult dose-mortality assay, LVP strain; assay type: in vivo; settings: for LC50: Aedes aegypti, read-out: Lethal Dose (LC50)
[8] = system: Aedes aegypti PRS (SP-resistant) strain L3 larvae; experiment: Larval dose-mortality (dose response) assay, PRS strain; assay type: in vivo; settings: for LC50: Aedes aegypti, PRS L3 larvae, read-out: Lethal Concentration (LC50)
Description: as §3

[9] = system: Aedes aegypti PRS (SP-resistant) strain 3-5 day old adults; experiment: Adult dose-mortality assay, PRS strain; assay type: in vivo; settings: for LC50: Aedes aegypti, PRS adults
[10] = system: Aedes aegypti LVP (SP-susceptible) strain L3 larvae; experiment: Qcide combinations larval dose-mortality assay, LVP strain; assay type: in vivo
Experimental: as §1, §2

[11] = system: Aedes aegypti LVP (SP-susceptible) strain L3 larvae; experiment: Larval mortality-time assay, LVP strain; assay type: in vivo; settings: table row says LC50 LVP dose, text LC90 dose
Description: Results represent n=3 biological replicates. Lethal time (LT50) of post topical exposure to a Lethal Concentration (LC90) dose is shown in comparison to SP and the technical grade synthetic pyrethroid, Deltamethrin.

[12] = 24 h, Permethrin alone (Table 4)
[13] = 24 h, Permethrin alone (Table 5)
[14] = 48 h, Permethrin alone (Table 4)
[15] = 48 h, Permethrin alone (Table 5)

For `CCCCOCCOCCOCc1cc2c(cc1CCC)OCO2` [PBO, piperonyl butoxide], which “% Dead” value [1] is on record?
Its value is 0.0%.

What about the maximum sublethal dose ([1]; topical) of the same compound?
The maximum sublethal dose was 10 μg/fly.

What about the Alive [1] of the same compound?
Its Alive is 80.

And the Dead [1]?
The Dead was 0.

And the “% Dead” value [2]?
Its value is 3.9%.

What about the Alive [2] of the same compound?
The Alive was 74.

And the Dead [2]?
Its Dead is 3.

With `CC(C)C(=O)C1C(=O)C(C)(C)C(=O)C(C)(C)C1=O` [Flavesone, flavesone] as the compound, how does the “% Dead” value [1] read?
The value was 0.0%.

And the maximum sublethal dose ([1]; topical)?
The maximum sublethal dose was 0.3 % v/v.

What about the Alive [1] of the same compound?
The Alive was 80.

And the Dead [1]?
The Dead was 0.

And the “Lethal Concentration (LC50)” value ([3]; 24 hours, listed as flavesone)?
Its value is 39 µg/mL.

What about the “Lethal Concentration (LC50)” value ([3]; 24 hours) of the same compound?
The value was 38.7 µg/mL.

What about the “Lethal Concentration (LC50)” value ([3]; 48 hours) of the same compound?
Its value is 37.1 µg/mL.

What about the “Lethal Concentration (LC50)” value ([3]; 72 hours) of the same compound?
Its value is 37.1 µg/mL.

And the “Lethal Concentration (LC50)” value ([4]; 24 hours, listed as flavesone)?
The value was 41 µg/mL.

And the “Lethal Concentration (LC50)” value ([4]; 24 hours)?
Its value is 40.9 µg/mL.

What about the “Lethal Concentration (LC50)” value ([4]; 48 hours) of the same compound?
The value was 40.5 µg/mL.

And the “Lethal Concentration (LC50)” value ([4]; 72 hours)?
Its value is 39.7 µg/mL.

With `CC1(C)C(C=C(Cl)Cl)C1C(=O)OCc1cccc(Oc2ccccc2)c1` (stereo not drawn) [Permethrin, permethrin] as the compound, how does the LC50 [5, 12] read?
Its LC50 is 2.1 µg/mL.

And the LC50 [5, 13]?
Its LC50 is 1.21 µg/mL.

What about the LC50 [5, 14] of the same compound?
The LC50 was 1.3 µg/mL.

What about the LC50 [5, 15] of the same compound?
The LC50 was 0.87 µg/mL.

What about the “Lethal Concentration (LC50)” value ([6]; 24 hours post exposure) of the same compound?
The value was 0.0259 µg/mL.

What about the LC50 ([6]; 24 h, 24 hours post exposure) of the same compound?
The LC50 was 0.026 µg/mL (≈ 0.0664 µM).

And the LC50 ([6]; 48 h, 48 hours post exposure)?
The LC50 was 0.0252 µg/mL (≈ 0.0644 µM).

And the LC50 ([6]; 72 h, 72 hours post exposure)?
Its LC50 is 0.0214 µg/mL (≈ 0.0547 µM).

What about the “Lethal Dose (LC50)” value ([7]; 24 hours post exposure) of the same compound?
Its value is 0.5429 µg/mL.

What about the LC50 ([7]; 24 h, 24 hours post exposure) of the same compound?
Its LC50 is 0.543 µg/mL (≈ 1.39 µM).

And the LC50 ([7]; 48 h, 48 hours post exposure)?
The LC50 was 0.505 µg/mL (≈ 1.29 µM).

And the LC50 ([8]; 24 hours post exposure)?
Its LC50 is 0.7 µg/mL (≈ 1.79 µM).

What about the LC50 ([8]; 48 hours post exposure) of the same compound?
Its LC50 is 0.6 µg/mL (≈ 1.53 µM).

And the LC50 ([8]; 72 hours post exposure)?
Its LC50 is 0.6 µg/mL (≈ 1.53 µM).

What about the “resistance of PRS strain larvae as compared to LVP strain” value ([8]; L3 larvae, under assay conditions) of the same compound?
The value was “approx. 25 fold”.

What about the “% Dead” value [1] of the same compound?
The value was 7.5%.

And the LD50 dose ([1]; CAR21 strain, topical)?
Its LD50 dose is 12 ng/fly.

What about the Alive [1] of the same compound?
The Alive was 74.

What about the Dead [1] of the same compound?
Its Dead is 6.

And the LC50 ([9]; 24 hours post exposure, read-out: Lethal Dose (LC50))?
Its LC50 is 130 µg/mL (≈ 332 µM).

And the LC50 ([9]; 24 hours, read-out: LC50)?
The LC50 was 130 µg/mL (≈ 332 µM).

What about the LC50 ([9]; 48 hours post exposure, read-out: Lethal Dose (LC50)) of the same compound?
The LC50 was 120 µg/mL (≈ 307 µM).

And the “resistance of PRS strain adults as compared to LVP” value ([9]; adults, under assay conditions)?
The value was “approximately 240 fold”.

What about the LC50 [10, 12] of the same compound?
Its LC50 is 0.0205 µg/mL.

And the LC50 [10, 13]?
The LC50 was 0.0237 µg/mL.

And the LC50 [10, 14]?
Its LC50 is 0.0181 µg/mL.

And the LC50 [10, 15]?
The LC50 was 0.0217 µg/mL.

What about the “% Dead” value [2] of the same compound?
Its value is 3.8%.

And the Alive [2]?
The Alive was 77.

What about the Dead [2] of the same compound?
Its Dead is 3.

What about the “Lethal Time (LT50)” value [11] of the same compound?
The value was 5.5 h and 5.6 h.

For `CC1(C)[C@H](C(=O)O[C@H](C#N)c2cccc(Oc3ccccc3)c2)[C@@H]1C=C(Br)Br` [Deltamethrin], which “Lethal Time (LT50)” value [11] is on record?
Its value is 5.6 h and 5.5 h.
